In patent USRE30241E, “Esters of 3-(hydroxy or hydroxymethyl)-4-hydroxyphenyl aminomethyl ketones” (Sterling Drug Inc., priority 1970, dated 1980):
Where two headings read alike, the source gives them in different places.

What was measured:
Assay type in all cases: in vivo
[1] = system: carbachol- or histamine-induced bronchoconstriction; test: Bronchodilator Test Method I, anesthetized dog, intraduodenal activity; settings: Canis lupus familiaris, read-out: Bronchodilation; for inhibition in vivo at 0.025 mg/kg: 25 mcg/kg (salt) intraduodenal; for inhibition in vivo at 0.05 mg/kg: 50 mcg/kg (salt) intraduodenal
Method: Male and female dogs weighing 9-18 kg. each were anesthetized with pentobarbital sodium (30 mg./kg. i.v.). Each animal, with thorax opened at the midsternum, was maintained under artificial ventilation using a constant volume pump (250 ml./stroke; 10 to 12 strokes per minute) attached to the tracheal cannula. The flow of air was controlled by a glass or plastic valve which closed and opened respectively on inflow and outflow of the air to and from the tracheal cannula. Bronchoconstriction and/or bronchodilatation were measured from changes in the basal airway pressure reflected by a transducer attached to the sidearm of the cannula relayed to a polygraph.
Control bronchoconstrictions were induced by intravenous injections of carbachol (choline chloride carbamate) in doses ranging from 4 to 6 micrograms per kilogram or histamine diphosphate in doses ranging from 35 to 45 micrograms per kilogram. In the majority of test animals, the above doses of constrictor agents produced a 100-200 percent increase in the normal airway pressure or amplitude.
Injections were repeated at 20-30 minutes.
In intraduodenal studies, in the dog prepared for bronchodilation measurements, the duodenal segment of the small intestine was made easily accessible through a small mid-line incision in the abdomen. The test solution was injected into the duodenum using a fine needle. Commencing 5 minutes after medication, the degree and duration of bronchodilation were tested by injecting a control dose of carbachol or histamine at intervals of 30-60 minutes until the recovery or near-recovery was apparent. In some dogs showing an early recovery, a reference drug was also tested in the same dog 1.5-2 hours after the first medicine.

[2] = system: carbachol- or histamine-induced bronchoconstriction; test: Bronchodilator Test Method I, anesthetized dog, intravenous activity; settings: Canis lupus familiaris, read-out: Bronchodilatation; for inhibition in vivo at 0.00025 mg/kg: 0.25 mcg/kg i.v.; for inhibition in vivo at 0.001 mg/kg: 1 mcg/kg i.v.; for inhibition in vivo at 0.004 mg/kg: 4 mcg/kg i.v.; for inhibition in vivo at 0.0013 mg/kg: 1.3 mcg/kg i.v.; for inhibition in vivo at 0.0065 mg/kg: 6.5 mcg/kg i.v.; for inhibition in vivo at 0.0325 mg/kg: 32.5 mcg/kg i.v.; for inhibition in vivo at 0.005 mg/kg: 5 mcg/kg i.v.; for inhibition in vivo at 0.02 mg/kg: 20 mcg/kg i.v.; for inhibition in vivo at 0.08 mg/kg: 80 mcg/kg i.v.
Procedure, shortened: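 Pentobarbital-anesthetized (30 mg/kg i.v.), open-chest, artificially ventilated dogs were given i.v. carbachol (4-6 µg/kg) or histamine diphosphate (35-45 µg/kg). Test compound was given i.v. mixed with, after, or 1-10 min before the constrictor.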

[3] = system: heart rate; test: Cardiovascular studies: effect on the heart rate in the anesthetized dog
Method: The effect of a rapid intravenous injection on the heart rate the heart rate was conducted in anesthetized dogs under normal respiration. A few open-chest dogs were also tested. Increase in heart rate was measured by using an electrocardiograph attached to the dog. Readings were taken every 0.5-1 minute for the first 10 minutes and every 2-5 minutes thereafter until recovery. In some cases, several doses and more than one compound were tested alternately in the same dog. The blood pressure effect was simultaneously recorded.

## CC(C)(C)NCC(O)c1ccc(O)c(CO)c1 (stereo not drawn) [Ref. Cpd. III, 3-Hydroxymethyl-4-hydroxy-alpha-(tert-butylaminomethyl)benzyl alcohol, reference compound]
[1]; 10 min, 10 min
  inhibition in vivo at 0.025 mg/kg: 45%
  inhibition in vivo at 0.05 mg/kg: 13%
[1]; 0.5 h, 30 min
  inhibition in vivo at 0.05 mg/kg: 42%
[1]; 1 h, 60 min
  inhibition in vivo at 0.025 mg/kg: 51%
  inhibition in vivo at 0.05 mg/kg: 56%
[1]; 2 h, 120 min
  inhibition in vivo at 0.025 mg/kg: 43%
  inhibition in vivo at 0.05 mg/kg: 71%
[1]; 3 h, 180 min
  inhibition in vivo at 0.025 mg/kg: 0%
  inhibition in vivo at 0.05 mg/kg: 53%
[1]; 4 h, 240 min
  inhibition in vivo at 0.05 mg/kg: 34%
[1]; 5 h, 300 min
  inhibition in vivo at 0.05 mg/kg: 6%
[2]; 5 min, 5 min
  inhibition in vivo at 0.00025 mg/kg: 18%
  inhibition in vivo at 0.001 mg/kg: 31%
  inhibition in vivo at 0.004 mg/kg: 65%
[2]; 0.5 h, 30 min
  inhibition in vivo at 0.00025 mg/kg: 0%
  inhibition in vivo at 0.001 mg/kg: 14%
  inhibition in vivo at 0.004 mg/kg: 24%
[2]; 1 h, 60 min
  inhibition in vivo at 0.001 mg/kg: 3%
  inhibition in vivo at 0.004 mg/kg: 18%
[2]; 2 h, 120 min
  inhibition in vivo at 0.004 mg/kg: 0%
[3]; 0.25 mcg/kg (salt) i.v.
  Mean Maximal Increase in the Heart Rate: 9 Beats/Minute
[3]; 1 mcg/kg (salt) i.v.
  Mean Maximal Increase in the Heart Rate: 15 Beats/Minute
[3]; 4 mcg/kg (salt) i.v.
  Mean Maximal Increase in the Heart Rate: 34 Beats/Minute

## CC(=O)Oc1ccc(C(O)CNC(C)(C)C)cc1OC(=O)C12CC3CC(CC(C3)C1)C2 (stereo not drawn) [Example 148, 3-(1-adamantanecarbonyloxy)-4-acetoxy-alpha-(tert-butylaminomethyl)benzyl alcohol methanesulfonate]
[2]; 5 min, 5 min
  inhibition in vivo at 0.0013 mg/kg: 21%
  inhibition in vivo at 0.0065 mg/kg: 47%
  inhibition in vivo at 0.0325 mg/kg: 95%
[2]; 0.5 h, 30 min
  inhibition in vivo at 0.0013 mg/kg: 1%
  inhibition in vivo at 0.0065 mg/kg: 30%
  inhibition in vivo at 0.0325 mg/kg: 66%
[2]; 1 h, 60 min
  inhibition in vivo at 0.0013 mg/kg: 10%
  inhibition in vivo at 0.0065 mg/kg: 23%
  inhibition in vivo at 0.0325 mg/kg: 54%
[2]; 2 h, 120 min
  inhibition in vivo at 0.0013 mg/kg: 16%
  inhibition in vivo at 0.0065 mg/kg: 15%
  inhibition in vivo at 0.0325 mg/kg: 39%
[2]; 3 h, 180 min
  inhibition in vivo at 0.0065 mg/kg: 13%
  inhibition in vivo at 0.0325 mg/kg: 28%
[2]; 4 h, 240 min
  inhibition in vivo at 0.0325 mg/kg: 14%
[3]; 6.5 mcg/kg (salt) i.v.
  Mean Maximal Increase in the Heart Rate: 32 Beats/Minute
[3]; 32.5 mcg/kg (salt) i.v.
  Mean Maximal Increase in the Heart Rate: 58 Beats/Minute

## CC(C)(C)NCC(O)c1ccc(OC(=O)C(C)(C)C)c(COC(=O)C(C)(C)C)c1 (stereo not drawn) [Example 135, 3-(pivalyloxymethyl)-4-(pivaloxy)-alpha-(tert-butylaminomethyl)benzyl alcohol methanesulfonate]
[1]; 5 min, 5 min
  inhibition in vivo at 0.025 mg/kg: 18%
  inhibition in vivo at 0.05 mg/kg: 31%
[1]; 0.5 h, 30 min
  inhibition in vivo at 0.05 mg/kg: 56%
[1]; 1 h, 60 min
  inhibition in vivo at 0.025 mg/kg: 56%
  inhibition in vivo at 0.05 mg/kg: 74%
[1]; 2 h, 120 min
  inhibition in vivo at 0.025 mg/kg: 55%
  inhibition in vivo at 0.05 mg/kg: 73%
[1]; 3 h, 180 min
  inhibition in vivo at 0.025 mg/kg: 45%
  inhibition in vivo at 0.05 mg/kg: 64%
[1]; 4 h, 240 min
  inhibition in vivo at 0.025 mg/kg: 34%
  inhibition in vivo at 0.05 mg/kg: 51%
[1]; 5 h, 300 min
  inhibition in vivo at 0.025 mg/kg: 27%
  inhibition in vivo at 0.05 mg/kg: 37%
[1]; 6 h, after 6 hrs.
  inhibition in vivo at 0.05 mg/kg: 36%
[2]; 5 min, 5 min
  inhibition in vivo at 0.005 mg/kg: 18%
  inhibition in vivo at 0.02 mg/kg: 30%
  inhibition in vivo at 0.08 mg/kg: 38%
[2]; 0.5 h, 30 min
  inhibition in vivo at 0.005 mg/kg: 32%
  inhibition in vivo at 0.02 mg/kg: 49%
  inhibition in vivo at 0.08 mg/kg: 64%
[2]; 1 h, 60 min
  inhibition in vivo at 0.005 mg/kg: 36%
  inhibition in vivo at 0.02 mg/kg: 50%
  inhibition in vivo at 0.08 mg/kg: 62%
[2]; 2 h, 120 min
  inhibition in vivo at 0.005 mg/kg: 26%
  inhibition in vivo at 0.02 mg/kg: 56%
  inhibition in vivo at 0.08 mg/kg: 66%
[2]; 3 h, 180 min
  inhibition in vivo at 0.02 mg/kg: 50%
  inhibition in vivo at 0.08 mg/kg: 62%
[2]; 4 h, 240 min
  inhibition in vivo at 0.02 mg/kg: 45%
  inhibition in vivo at 0.08 mg/kg: 56%
[2]; 5 h, 300 min
  inhibition in vivo at 0.02 mg/kg: 36%
  inhibition in vivo at 0.08 mg/kg: 49%
[3]; 0.25 mcg/kg (salt) i.v.
  Mean Maximal Increase in the Heart Rate: 5 Beats/Minute
[3]; 1 mcg/kg (salt) i.v.
  Mean Maximal Increase in the Heart Rate: 10 Beats/Minute
[3]; 8 mcg/kg (salt) i.v.
  Mean Maximal Increase in the Heart Rate: 17 Beats/Minute
